Laboratory results reported in US6951953B2, “Tumor selective and biodegradable polyphosphazene-platinum(II) conjugate antitumor agent, and preparation method thereof” (EWHA Womans University, priority 2003, dated 2005).
Where two headings read alike, the source gives them in different places.

Experiments:
[1] = system: gastric tumor cell line (YCC-3); experiment: In vivo xenograft test against a gastric tumor cell line (YCC-3); details: YCC-3 xenograft in nu/nu mice; for The tumor tissue size after injection of an antitumor agent: intraperitoneal; for tumor tissue growth rate / inhibition effect on it (in words): versus control group / cisplatin, after 60 days from injection
Protocol: The in vivo sensitivity of the present conjugate drug against a gastric tumor cell line (YCC-3) was assayed using nu/nu mice (6-8 weeks old, 20-25 g). After being treated with 0.25% Trypsin-EDTA, the cultivated tumor cells were centrifuged in PBS solution for 5 minutes. This process was repeated three or more times, and then the tumor cells were made into a single floated tumor cell. The concentration of the tumor cells in PBS solution was calculated from the number of cells measured by a hemocytometer. The tumor cells were then kept in ice and were injected into mice within 30 minutes. The single floated tumor cells (4×10^7) in 100 μl of PBS solution were subcutaneously injected into the right side of each mouse using an 1 ml syringe.
[…] In the case of the control group, only the same amount of PBS solution was injected. Weights of the mice and tumor size were measured every two days. Size of the tumor was calculated with an equation of length×width×width/2.

leukemia L1210 cell line [2] = system: leukemia L1210 cell line
leukemia L1210 cell line [3] = details: read-out: In vitro (ID50)

Row | Compound | in vivo T/C (%) (leukemia L1210 cell line [2]; dosage 30 mg/kg) | in vivo T/C (%) (leukemia L1210 cell line [2]; dosage 60 mg/kg) | IC50 (leukemia L1210 cell line [3]) | also measured
1 | N.N.[Cl][Pt][Cl] [Cisplatin, reference compound] | – | – | – | The tumor tissue size after injection of an antitumor agent ([1]; 18 days, dosage 4 mg/kg): 161.36 mm^3; The tumor tissue size after injection of an antitumor agent ([1]; 32 days, dosage 4 mg/kg): 330.62 mm^3; The tumor tissue size after injection of an antitumor agent ([1]; 48 days, dosage 4 mg/kg): 588.02 mm^3; The tumor tissue size after injection of an antitumor agent ([1]; 60 days, dosage 4 mg/kg): 815.79 mm^3; tumor tissue growth rate / inhibition effect on it (in words) [1]: not significantly different from that of the control group
2 | poly{[methoxy poly(ethylene glycol)350][glycylglutamato-trans-(±)-1,2-diaminocyclohexaneplatinum(II)]phosphazene}, {NP(MPEG350)1.0[(GlyGlu)Pt(dach)]1.0}n [Example 3] | 194.1% | toxic | 3.4 µM | The tumor tissue size after injection of an antitumor agent ([1]; 18 days, dosage 30 mg/kg): 121.92 mm^3; The tumor tissue size after injection of an antitumor agent ([1]; 18 days, dosage 60 mg/kg): 32.69 mm^3; The tumor tissue size after injection of an antitumor agent ([1]; 32 days, dosage 30 mg/kg): 210.38 mm^3; The tumor tissue size after injection of an antitumor agent ([1]; 32 days, dosage 60 mg/kg): 72.08 mm^3; The tumor tissue size after injection of an antitumor agent ([1]; 48 days, dosage 30 mg/kg): 111.23 mm^3; The tumor tissue size after injection of an antitumor agent ([1]; 48 days, dosage 60 mg/kg): 65.36 mm^3; The tumor tissue size after injection of an antitumor agent ([1]; 60 days, dosage 30 mg/kg): 22.71 mm^3; The tumor tissue size after injection of an antitumor agent ([1]; 60 days, dosage 60 mg/kg): 91.10 mm^3; tumor tissue growth rate / inhibition effect on it (in words) [1]: outstanding compared with that of cisplatin
3 | poly{[methoxy poly(ethylene glycol)350][glycylglutamato-trans-(±)-1,2-diaminocyclohexaneplatinum(II)]phosphazene}, {NP(MPEG350)1.2[(GlyGlu)Pt(dach)]0.8}n [Example 2] | 208.1% | > 305.6% | 6.9 µM | –
4 | poly{[methoxy poly(ethylene glycol)350][glycylglutamato-trans-(±)-1,2-diaminocyclohexaneplatinum(II)]phosphazene}, {NP(MPEG350)1.4[(GlyGlu)Pt(dach)]0.6}n [Example 5] | 244.3% | 231.1% | 6.2 µM | –
5 | poly{[methoxy poly(ethylene glycol)350][glycylglutamato-trans-(±)-1,2-diaminocyclohexaneplatinum(II)]phosphazene}, {NP(MPEG350)1.5[(GlyGlu)Pt(dach)]0.5}n [Example 1] | 178/30% | – | 8.2 µM | –
6 | poly{[methoxy poly(ethylene glycol)550][glycylglutamato-trans(±trans-(±)-1,2-diaminocyclohexaneplatinum(II)]phosphazene}, {NP(MPEG350)1.12[(GlyGlu)Pt(dach)]0.88}n [Example 7] | 228.2% | 209.4% | > 40 µM | –
7 | pol{[methoxy poly(ethylene glycol)350][glycylglutamato-trans-(±)-1,2-diaminocyclohexaneplatinum(II)]phosphazene}, {NP(MPEG350)1.2[(GlyGlu)Pt(dach)]0.8}n [Example 4] | 186.8% | 216.8% | 3.5 µM | –
